Patent publication US10906900B2, “Compounds for using in imaging and particularly for the diagnosis of neurodegenerative diseases” (CENTRE NATIONAL DE LA RECHERCHE SCIENTIFIQUE, priority 2016, dated 2021)
Like-named read-outs stand apart in the source and are kept apart here.

How the values were obtained:
Aβ1-42 fibres = Aβ1-42 fibres (Homo sapiens, UniProt P05067); experiment: In vitro inhibition of ThT binding and determination of Ki (fluorescence), Aβ1-42 fibres; conditions: vs Thioflavin T 500 nM; Aβ1-42 fibres 500 nM; PBS pH7.4, 1 h RT; read-out: Ki Aβ
Procedure: (§1) To obtain fiber assembly, α-syn is incubated in Tris-HCl 50 mM pH7.5, KCl 150 mM at 37° C. under continuous agitation during 4 days. The lyophilized Aβ1-42 was dissolved in 1,1,1,3,3,3-Hexafluoro-2-propanol (HFIP) at 0.2 mg/mL and incubated for 24 h at 37° C. to obtain the complete solubilization. The HFIP is evaporated under nitrogen stream to obtain a dry product. To start the fiber assembly, the dry peptide is resuspended in PBS pH7.4, 10% (v/v) DMSO and incubated at 37° C. for 3 days without agitation.
(§2) Protein fibers are systematically observed by electron microscopy (Jeol 1400). The images are recorded with a CCD camera (Gatan Orius). Finally, the percentage of α-syn and Aβ1-42 aggregated into fibers is checked on the pellet after centrifugation at 40000×g for 20 min and determination of the concentration of soluble protein/peptide remaining in the supernatant.
(§3) The samples are incubated for 1 h at room temperature (RT) to reach equilibrium. […] From each curve, the IC50 value is measured using the following equation: Y=min+(max−min)/1+([…])^slope

Aβ1-42 fibers = Aβ1-42 fibers (Homo sapiens, UniProt P05067); experiment: In vitro direct determination of Kd and Bmax by fluorescence, Aβ1-42 fibers; assay type: binding; conditions: for Aβ Bmax1: density of binding sites; for Aβ Bmax1 / Kd: direct fluorescence, Scatchard analysis; for Kd: Aβ1-42 fibers 500 nM, read-out: Aβ Kd1; for Aβ Bmax1 (number of sites/monomer): in brackets in the Bmax cell
Procedure: as §1
(§4) Fresh solutions of each test compound (2.5 mM in DMSO) are diluted in PBS pH=7.4 at concentrations between 0.5 nM and 5 μM in the presence or absence of α-syn (200 nM), Aβ1-42 (500 nM) or Tau (200 nM) fibers in a final 2 mL volume. After 1 h of incubation at RT, the binding of each compound to α-syn, A131-42 or Tau fibers is measured by fluorescence using the spectral changes of the compounds during their binding to the fibers, using the appropriate excitation/emission wavelengths (those giving the highest fluorescence variation during binding to the fibres). For each concentration of compound added to the fibres, the bound and free fractions are measured by fluorescence according to the following equation: Fm=FBB+FF×(T−B)
(§5) The value of FF is determined by measuring the fluorescence of known concentrations of compounds in the absence of fibres. The FB value is determined by measuring the maximum fluorescence of known concentrations of compounds in the presence of saturated concentrations of α-syn, Aβ1-42, or Tau fibers.
(§6) The values of B thus determined versus the concentrations of the free fractions (T-B) are analyzed according to the Michaelis-Menten equation. The affinity (Kd) and density of binding sites within the fibers of α-syn, Aβ1-42 or Tau (Bmax) are determined by Scatchard analysis, which also makes it possible to highlight multiple site classes.

Tau fibres = Tau fibres (Homo sapiens (Human), UniProt P10636); experiment: In vitro inhibition of ThT binding and determination of Ki (fluorescence), Tau fibres; conditions: for Tau selectivity according to analysis of Ki (Table 5): selective = good affinity and at least two times greater than for at least one of the two other proteins
Procedure: (§7) Tau protein in PBS buffer containing 1 mM DTT is assembled into fiber in the presence of one twelfth of a molar equivalent of heparin at 37° C. under stirring.
as §3

Tau fibers = Tau fibers (Homo sapiens (Human), UniProt P10636); experiment: In vitro direct determination of Kd and Bmax by fluorescence, Tau fibers; assay type: binding; conditions: for Tau Bmax1: density of binding sites; for Tau Bmax1 / Kd: direct fluorescence, Scatchard analysis; for Kd: Tau fibers 200 nM, read-out: Tau Kd1; for Tau Bmax1 (number of sites/monomer): in brackets in the Bmax cell; for Tau selectivity according to analysis of Kd (Tables 6 and 7): selective = good affinity and at least two times greater than for at least one of the two other proteins
Procedure: Human Tau protein (isoform h2N4RTau) is expressed in the vector pET11d in E. Coli (strain BL21 (DE3), (Stratagene, La Jolla, Calif.)) and purified according to the described method (Barghorn S, Biernat J, Mandelkow E. (2005) Methods Mol Biol. 299:35-51). The Tau purified concentration is determined by measuring the absorbance at 280 nm using a molar extinction coefficient of 7450 M^−1 cm^−1.
as §7, §4
Where Fm is the fluorescence measured in the presence of fibers at a concentration T of the compound added to the fibers, FB is the specific fluorescence of the bound compound, FF is the specific fluorescence of the free compound, and B is the concentration of the fiber bound compound at a given concentration T (Bell, J. E., “Fluorescence; Solution Studies”, Spectrometry in Biochemistry, vol. I, Bell, J. E., ed., CRC Press, Inc., Boca Raton, Fla., pp. 155-194 (1981)).
as §5
Thus, at each point, the concentration of bound compound B is determined according to the following equation: B=(Fm−FF×T)/(FB−FF)
as §6

α-syn fibers = α-syn fibers (Homo sapiens (Human), UniProt P37840); experiment: In vitro direct determination of Kd and Bmax by fluorescence, α-syn fibers; assay type: binding; conditions: for αsyn Bmax1: density of binding sites; for αsyn Bmax1 / Kd: direct fluorescence, Scatchard analysis; for Kd: α-syn fibers 200 nM, read-out: αsyn Kd1; for αsyn Bmax1 (number of sites/monomer): in brackets in the Bmax cell; for α-syn selectivity according to analysis of Kd (Tables 6 and 7): selective = good affinity and at least two times greater than for at least one of the two other proteins
Procedure: as §1, §4, §5, §6

α-syn fibres = α-syn fibres (Homo sapiens (Human), UniProt P37840); experiment: In vitro inhibition of ThT binding and determination of Ki (fluorescence), α-syn fibres; conditions: for α-syn selectivity according to analysis of Ki (Table 5): selective = good affinity and at least two times greater than for at least one of the two other proteins; for Ki: vs Thioflavin T 500 nM, α-syn fibres 200 nM, PBS pH7.4, 1 h RT, read-out: Ki αsyn
Procedure: as §1, §2, §3

[1] = vs Thioflavin T 500 nM, Tau fibres 200 nM, PBS pH7.4, 1 h RT

Chain of Aβ1-42 fibers (P05067 672-713 limits assumed): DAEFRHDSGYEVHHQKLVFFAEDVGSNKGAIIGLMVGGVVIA
Chain of Aβ1-42 fibres (P05067 672-713 limits assumed): as above
Chain of Tau fibers (P10636 other isoform, or with tags, fused parts or gaps): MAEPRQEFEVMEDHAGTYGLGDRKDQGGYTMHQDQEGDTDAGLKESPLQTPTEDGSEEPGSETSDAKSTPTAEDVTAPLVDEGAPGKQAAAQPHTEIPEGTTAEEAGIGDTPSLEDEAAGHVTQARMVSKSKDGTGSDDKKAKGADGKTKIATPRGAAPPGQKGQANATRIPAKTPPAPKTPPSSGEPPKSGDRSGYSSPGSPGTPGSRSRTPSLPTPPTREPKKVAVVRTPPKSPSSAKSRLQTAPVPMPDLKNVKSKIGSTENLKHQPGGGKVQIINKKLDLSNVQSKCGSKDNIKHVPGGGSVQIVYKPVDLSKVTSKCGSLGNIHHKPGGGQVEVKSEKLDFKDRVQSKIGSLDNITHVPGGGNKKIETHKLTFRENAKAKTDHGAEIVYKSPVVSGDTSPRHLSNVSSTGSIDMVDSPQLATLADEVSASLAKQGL
Chain of Tau fibres (P10636 other isoform, or with tags, fused parts or gaps): as above

Ki (Aβ1-42 fibres) [nM] | Compound | Aβ Bmax1 (Aβ1-42 fibers) [nmol/μmol prot] | Kd (Aβ1-42 fibers) [nM] | Aβ Bmax1 (number of sites/monomer) (Aβ1-42 fibers) | Ki (Tau fibres) [nM] | Tau selectivity according to analysis of Ki (Table 5) (Tau fibres) | Tau Bmax1 (Tau fibers) [nmol/μmol prot] | Kd (Tau fibers) [nM] | Tau Bmax1 (number of sites/monomer) (Tau fibers) | Tau selectivity according to analysis of Kd (Tables 6 and 7) (Tau fibers) | αsyn Bmax1 (α-syn fibers) [nmol/μmol prot] | Kd (α-syn fibers) [nM] | αsyn Bmax1 (number of sites/monomer) (α-syn fibers) | α-syn selectivity according to analysis of Kd (Tables 6 and 7) (α-syn fibers) | α-syn selectivity according to analysis of Ki (Table 5) (α-syn fibres) | Ki (α-syn fibres) [nM] | Ki (Tau fibres; [1]) [nM]
244 ± 84 | CN(C)c1ccc(C#Cc2cc3c(F)ccnc3[nH]2)cc1 [Compound 22h, 4-((4-Fluoro-1H-pyrrolo[2,3-b]pyridin-2-yl)ethynyl)-N,N-dimethylaniline] |  |  |  |  |  |  |  |  |  |  |  |  |  |  |  | 
 | CN(C)c1ccc(C#Cc2cc3ccc(-c4ccc(F)nc4)nc3[nH]2)cc1 [Compound 25c, 4-((6-(6-Fluoropyridin-3-yl)-1H-pyrrolo[2,3-b]pyridin-2-yl)ethynyl)-N,N-dimethylaniline] | 11.0 ± 2 | 3.1 ± 1 | 1/90 |  |  |  |  |  |  |  |  |  |  |  |  | 
318 ± 95 | CN(C)c1ccc(C#Cc2cc3cc(F)cnc3[nH]2)cc1 [Compound 22g, 4-((5-Fluoro-1H-pyrrolo[2,3-b]pyridin-2-yl)ethynyl)-N,N-dimethylaniline] |  |  |  |  |  |  |  |  |  |  |  |  |  |  |  | 
 | CN(C)c1ccc(C#Cc2cc3ccc(-c4ccsc4)nc3[nH]2)cc1 [Compound 25b, N,N-Dimethyl-4-((6-(thiophen-3-yl)-1H-pyrrol[2,3-b]pyridin-2-yl)ethynyl)aniline] | 11.0 ± 1 | 4.27 ± 0.6 | 1/90 |  |  |  |  |  |  |  |  |  |  |  |  | 
2.2 ± 1 | CNc1ccc(/C=C/c2ccc(OCCOCCOCCF)nc2)cc1 [AV45, reference compound] | 3.33 ± 0.2 | 1.68 ± 0.2 | 1/300 |  |  | 92.0 ± 20 | 19.6 ± 5 | 1/11 |  | 27.9 ± 19 | 24.3 ± 20 | 1/35 |  |  | 76.6 ± 44 | 30.6 ± 9
 | CN(C)c1ccc(C#Cc2cc3cnccc3[nH]2)cc1 [Compound 22d, 4-((1H-Pyrrolo[3,2-c]pyridin-2-yl)ethynyl)-N,N-dimethylaniline] | 2.4 ± 0.8 | 3.6 ± 2 | 1/400 |  |  | 12.5 ± 5 | 2.4 ± 0.9 | 1/80 |  | 6.0 ± 1 | 1 ± 0.5 | 1/170 | selective |  |  | 
349 ± 256 | CN(C)c1ccc(C#Cc2cc3ccc(F)nc3[nH]2)cc1 [Compound 22f, 4-((6-Fluoro-1H-pyrrolo[2,3-b]pyridin-2-yl)ethynyl)-N,N-dimethylaniline] | 21.6 ± 3 | 16.8 ± 2 | 1/50 |  |  |  |  |  |  |  |  |  |  |  |  | 
909 ± 143 | CN(C)c1ccc(C#Cc2cc3ccc(Cl)nc3[nH]2)cc1 [Compound 22e, 4-((6-Chloro-1H-pyrrolo[2,3-b]pyridin-2-yl)ethynyl)-N,N-dimethylaniline] |  |  |  | 25.1 ± 8 | selective |  |  |  |  |  |  |  |  | selective | 49.9 ± 12 | 
 | CN(C)c1ccc(C#Cc2cc3ccc(-c4cccs4)nc3[nH]2)cc1 [Compound 25a, N,N-Dimethyl-4-((6-(thiophen-2-yl)-1H-pyrrol[2,3-b]pyridin-2-yl)ethynyl)aniline] | 5.8 ± 0.32 | 4.9 ± 0.6 | 1/170 |  |  | 70.4 ± 4 | 1.67 ± 0.5 | 1/10 |  | 53.5 ± 10 | 0.49 ± 0.2 | 1/20 | selective |  |  | 

Compound | Ki (Aβ1-42 fibres) [nM] | Aβ Bmax1 (Aβ1-42 fibers) [nmol/μmol prot] | Kd (Aβ1-42 fibers) [nM] | Aβ Bmax1 (number of sites/monomer) (Aβ1-42 fibers) | Ki (Tau fibres) [nM] | Tau selectivity according to analysis of Ki (Table 5) (Tau fibres) | Tau Bmax1 (Tau fibers) [nmol/μmol prot] | Kd (Tau fibers) [nM] | Tau Bmax1 (number of sites/monomer) (Tau fibers) | Tau selectivity according to analysis of Kd (Tables 6 and 7) (Tau fibers) | αsyn Bmax1 (α-syn fibers) [nmol/μmol prot] | Kd (α-syn fibers) [nM] | αsyn Bmax1 (number of sites/monomer) (α-syn fibers) | α-syn selectivity according to analysis of Kd (Tables 6 and 7) (α-syn fibers) | α-syn selectivity according to analysis of Ki (Table 5) (α-syn fibres) | Ki (α-syn fibres) [nM] | Ki (Tau fibres; [1]) [nM]
CN(C)c1ccc(C#Cc2cc3cccnc3[nH]2)cc1 [Compound 22a, 4-((1H-Pyrrolo[2,3-b]pyridin-2-yl)ethynyl)-N,N-dimethylaniline] | 24.5 ± 9 | 3.04 ± 0.6 | 11.8 ± 3 | 1/300 | 4.61 ± 0.2 | selective | 93.0 ± 15 | 0.44 ± 0.1 | 1/10 | selective | 69.5 ± 20 | 0.53 ± 0.2 | 1/14 | selective | selective | 4.7 ± 2 | 
CC(=C(C#N)C#N)c1ccc2cc(N(C)CCF)ccc2c1 [FDDNP, reference compound] | 4.6 ± 3 | 10.2 ± 1 | 4.2 ± 1 | 1/100 |  |  | 138.5 ± 16 | 34.9 ± 6 | 1/7 |  | 39.5 ± 10 | 16.1 ± 6 | 1/25 |  |  | 25.1 ± 5 | 9.5 ± 1
CN(C)c1ccc(C#Cc2cc3ccncc3[nH]2)cc1 [Compound 22b, 4-((1H-Pyrrolo[2,3-c]pyridin-2-yl)ethynyl)-N,N-dimethylaniline] | 91.5 ± 11 | 2.3 ± 0.8 | 5.2 ± 3 | 1/400 | 8.4 ± 2 | selective | 37.1 ± 10 | 0.49 ± 0.2 | 1/30 | selective | 80.0 ± 42 | 1.4 ± 1 | 1/15 | selective | selective | 28.7 ± 8 | 
CN(C)c1ccc(C#Cc2cc3ncccc3[nH]2)cc1 [Compound 22c, 4-((1H-Pyrrolo[3,2-b]pyridin-2-yl)ethynyl)-N,N-dimethylaniline] | 21.3 ± 7 | 1.44 ± 0.6 | 2.9 ± 2 | 1/700 | 12 ± 1 | selective | 26.5 ± 5 | 0.13 ± 0.05 | 1/40 | selective | 82.5 ± 5 | 3.25 ± 0.2 | 1/12 |  |  | 26 ± 16 | 
